Assay results: patent US10450279B2 (priority 2014, dated 2019)

Columns and labels:
Format in all cases: cell-based
Details in all cases: relative growth vs active compound-free control (100%), 405 nm, 7 days after inoculation
[1] = system: Botrytis cinerea; assay: Activity against the grey mold Botrytis cinerea in the microtiterplate test (Botrci)
[2] = system: Pyricularia oryzae
[3] = system: Septoria tritici; assay: Activity against leaf blotch on wheat caused by Septoria tritici (Septtr), microtiterplate test

Compound	Growth (%) at 31 ppm Botrci [1]	Growth (%) at 31 ppm Pyrior [2]	Growth (%) at 8 ppm Septtr [3]
CC(O)(Cn1cncn1)c1ccc(Oc2ccc(Cl)cc2)cc1C(F)(F)F (stereo not drawn) [compound 24]	0%	0%	0%
CC(O)(Cn1cncn1)c1ccc(Oc2ccc(Cl)cc2Cl)cc1C(F)(F)F (stereo not drawn) [compound 25]	3%	2%	0%
CC(O)(Cn1cncn1)c1ccc(Oc2ccccc2C(F)(F)F)cc1C(F)(F)F (stereo not drawn) [compound 26]	–	–	1%
CC(O)(Cn1cncn1)c1ccc(Oc2ccc(C(F)(F)F)cc2)cc1C(F)(F)F (stereo not drawn) [compound 27]	18%	1%	0%
CC(O)(Cn1cncn1)c1ccc(Oc2ccc(F)cc2)cc1C(F)(F)F (stereo not drawn) [compound 28]	0%	7%	0%
CC(O)(Cn1cncn1)c1ccc(Oc2ccc(F)cc2F)cc1C(F)(F)F (stereo not drawn) [compound 29]	0%	0%	5%
CC(O)(Cn1cncn1)c1ccc(Oc2ccc(Cl)cc2)cc1Cl (stereo not drawn) [compound 31]	3%	2%	0%
CC(O)(Cn1cncn1)c1ccc(Oc2ccc(Cl)cc2Cl)cc1Cl (stereo not drawn) [compound 32]	9%	3%	12%
CC(O)(Cn1cncn1)c1ccc(Oc2ccc(F)cc2)cc1Cl (stereo not drawn) [compound 33]	0%	0%	1%
CC(O)(Cn1cncn1)c1ccc(Oc2ccc(F)cc2F)cc1Cl (stereo not drawn) [compound 34]	1%	0%	0%
CC(O)(Cn1cncn1)c1ccc(Oc2ccccc2C(F)(F)F)cc1Cl (stereo not drawn) [compound 35]	1%	1%	0%
CC(O)(Cn1cncn1)c1ccc(Oc2ccc(C(F)(F)F)cc2)cc1Cl (stereo not drawn) [compound 36]	–	14%	–
OC(Cn1cncn1)(c1ccc(Oc2ccc(F)cc2)cc1Cl)C1CC1 (stereo not drawn) [compound 37]	1%	1%	0%
OC(Cn1cncn1)(c1ccc(Oc2ccccc2C(F)(F)F)cc1Cl)C1CC1 (stereo not drawn) [compound 38]	2%	1%	1%
OC(Cn1cncn1)(c1ccc(Oc2ccc(Cl)cc2Cl)cc1Cl)C1CC1 (stereo not drawn) [compound 39]	0%	2%	14%
OC(Cn1cncn1)(c1ccc(Oc2ccc(C(F)(F)F)cc2)cc1Cl)C1CC1 (stereo not drawn) [compound 40]	8%	1%	2%
OC(Cn1cncn1)(c1ccc(Oc2ccc(F)cc2F)cc1Cl)C1CC1 (stereo not drawn) [compound 41]	1%	0%	0%
OC(Cn1cncn1)(c1ccc(Oc2ccc(Cl)cc2)cc1Cl)C1CC1 (stereo not drawn) [compound 42]	3%	1%	0%
CC(C)(C)C(O)(Cn1cncn1)c1ccc(Oc2ccc(Cl)cc2)cc1 (stereo not drawn) [compound 43]	3%	–	0%
CC(C)(C)C(O)(Cn1cncn1)c1ccc(Oc2ccc(F)cc2)cc1 (stereo not drawn) [compound 44]	1%	0%	0%
CC(C)(C)C(O)(Cn1cncn1)c1ccc(Oc2ccc(F)cc2F)cc1 (stereo not drawn) [compound 45]	0%	1%	0%
CC(C)(C)C(O)(Cn1cncn1)c1ccc(Oc2ccc(Cl)cc2Cl)cc1 (stereo not drawn) [compound 46]	6%	2%	4%
CC(C)(C)C(O)(Cn1cncn1)c1ccc(Oc2ccccc2C(F)(F)F)cc1 (stereo not drawn) [compound 47]	15%	1%	0%
CC(C)(C)C(O)(Cn1cncn1)c1ccc(Oc2ccc(C(F)(F)F)cc2)cc1 (stereo not drawn) [compound 48]	–	1%	0%
CCC(O)(Cn1cncn1)c1ccc(Oc2ccc(Cl)cc2)cc1Cl (stereo not drawn) [compound 49]	2%	1%	3%
CCC(O)(Cn1cncn1)c1ccc(Oc2ccc(F)cc2)cc1Cl (stereo not drawn) [compound 50]	2%	9%	0%
CCC(O)(Cn1cncn1)c1ccc(Oc2ccc(F)cc2F)cc1Cl (stereo not drawn) [compound 51]	0%	0%	0%
CCC(O)(Cn1cncn1)c1ccc(Oc2ccc(Cl)cc2Cl)cc1Cl (stereo not drawn) [compound 52]	3%	1%	0%
CCC(O)(Cn1cncn1)c1ccc(Oc2ccccc2C(F)(F)F)cc1Cl (stereo not drawn) [compound 53]	3%	2%	0%
CCC(O)(Cn1cncn1)c1ccc(Oc2ccc(C(F)(F)F)cc2)cc1Cl (stereo not drawn) [compound 54]	4%	2%	0%
